Counter-ions that a name gives are not always drawn. Like-named read-outs stand apart in the source and are kept apart here.
Tests used:
[1] = test system: Feline infectious peritonitis virus; assay type: cell-based; conditions: for EC50: read-out: EC50 (Visual assay), Feline infectious peritonitis virus; for Selectivity index, Feline infectious peritonitis virus: CC50/EC50 in Fcwf-4 cells
Human coronavirus OC43 = experiment: microbe, parasite or virus in culture; assay type: cell-based, Human coronavirus OC43 (HCoV-OC43); conditions: for EC50: read-out: EC50 (IFA), Human coronavirus OC43; for Selectivity index, Human coronavirus OC43: CC50/EC50 in HCT-8 cells
in vitro [2] = conditions: cat (Felis catus)
in vitro [3] = conditions: human
[4] = Betacoronavirus 1, OC43, HCT-8, 72 h

SMILES | EC50 [1] | EC50 (Human coronavirus OC43) | Selectivity index, Feline infectious peritonitis virus [1] | EC50 (Human coronavirus OC43; [4]) | Selectivity index, Human coronavirus OC43 (Human coronavirus OC43) | CC50 (in vitro [2]) | CC50 (in vitro [3])
COc1ccc(C[C@H]2NC[C@H](O)[C@H]2OC(C)=O)cc1 [Anisomycin] | 0.023 µM | 0.2 ± 0.03 µM | – | – | – | – | –
CCCCCC[C@H]1C(=O)O[C@H](C)[C@H](NC(=O)c2cccc(NC=O)c2O)C(=O)O[C@@H](C)[C@@H]1OC(=O)CC(C)C [Antimycin A] | – | – | 1.10 | 0.062 ± 0.003 µM | >806 | 81.9 ± 6.36 µM | > 50 µM
O=C1C(O)=C([C@H]2CC[C@H](c3ccc(Cl)cc3)CC2)C(=O)c2ccccc21 [Atovaquone] | – | – | – | 6.78 ± 0.73 µM | >7.37 | > 100 µM | > 50 µM
CCN(CC)CCCC(C)Nc1ccnc2cc(Cl)ccc12 (stereo not drawn) [Chloroquine (diphosphate), Chloroquine] | 27.9 ± 0.72 µM | – | 1.35 | 27.4 ± 2.51 µM | >1.82 | 37.5 µM | > 50 µM
Cc1nc2c([nH]1)-c1ccccc1N(C(=O)c1ccc(NC(=O)c3ccccc3-c3ccccc3)cc1)CC2 [Conivaptan] | 16.9 ± 1.51 µM | – | – | 12.2 ± 4.2 µM | >4.10 | > 100 µM | > 50 µM
CC[C@H]1CN2CCc3cc(OC)c(OC)cc3[C@@H]2C[C@@H]1C[C@H]1NCCc2cc(OC)c(OC)cc21 [Emetine] | – | – | 3.00 | 0.21 ± 0.07 µM | >238 | 0.03 µM | > 50 µM
N#C[C@@]1(c2ccc3c(N)ncnn23)O[C@H](CO)[C@@H](O)[C@H]1O [GS-441524] | – | – | – | 6.77 ± 0.71 µM | >7.39 | > 100 µM | > 50 µM
Nc1ccn([C@@H]2O[C@H](CO)[C@@H](O)C2(F)F)c(=O)n1 [Gemcitabine (Hydrochloride), Gemcitabine] | – | – | – | 38.6 ± 11.4 µM | >1.30 | > 100 µM | > 50 µM
COC(=O)C[C@](O)(CCCC(C)(C)O)C(=O)O[C@@H]1C(OC)=C[C@]23CCCN2CCc2cc4c(cc2[C@H]13)OCO4 [Homoharringtonine] | – | – | 1.58 | 0.29 ± 0.03 µM | 26.7 | 0.049 ± 0.002 µM | 7.61 ± 0.6 µM
O=C(Nc1ccc([N+](=O)[O-])cc1Cl)c1cc(Cl)ccc1O [Niclosamide] | – | – | 0.80 | 1.36 ± 0.56 µM | >36.8 | 0.23 µM | > 50 µM
CC(=O)Oc1ccccc1C(=O)Nc1ncc([N+](=O)[O-])s1 [Nitazoxanide] | – | – | – | 28.6 ± 7.44 µM | >1.75 | 4.69 µM | > 50 µM
CC[C@H]1/C=C/C=C/C[C@@H](C)[C@H](O)[C@@](C)(O)C(=O)[C@@H](C)[C@H](O)[C@@H](C)C(=O)[C@@H](C)[C@H](O)[C@@H](C)/C=C/C(=O)O[C@@H]2[C@H](C)[C@H](CC1)O[C@]1(CC[C@H](C)[C@H](C[C@@H](C)O)O1)[C@H]2C [Oligomycin] | – | 5.22 ± 0.96 µM | 1.06 | 5.2 µM | >9.58 | 18.8 µM | > 50 µM
CC[C@@H](C(=O)[C@@H](C)[C@@H](O)[C@H](C)[C@@H]1O[C@@H]([C@@H](CC)C(=O)O)CC[C@@H]1C)[C@H]1O[C@]2(C=C[C@@H](O)[C@]3(CC[C@@](C)([C@H]4CC[C@](O)(CC)[C@H](C)O4)O3)O2)[C@H](C)C[C@@H]1C [Salinomycin] | – | – | 0.49 | 5.78 ± 2.17 µM | >8.65 | 0.34 ± 0.1 µM | > 50 µM
CCN(CC)CCOc1ccc2c(c1)C(=O)c1cc(OCCN(CC)CC)ccc1-2 [Tilorone (dihydrochloride), Tilorone] | – | – | 0.84 | 26 ± 2.24 µM | 1.38 | 9.38 µM | 35.9 ± 2.97 µM
CC(C)[C@@H]1NC(=O)[C@H](C)OC(=O)[C@@H](C(C)C)NC(=O)[C@@H](C(C)C)OC(=O)[C@H](C(C)C)NC(=O)[C@H](C)OC(=O)[C@@H](C(C)C)NC(=O)[C@@H](C(C)C)OC(=O)[C@H](C(C)C)NC(=O)[C@H](C)OC(=O)[C@@H](C(C)C)NC(=O)[C@@H](C(C)C)OC1=O [Valinomycin] | – | 0.41 ± 0.02 µM | 2.45 | 0.4 µM | >122 | 3.98 ± 0.39 µM | > 50 µM
CS(=O)(=O)c1ccc(C(=O)Nc2ccc(Cl)c(-c3ccccn3)c2)c(Cl)c1 [Vismodegib] | – | – | – | 47.6 ± 3.29 µM | >1.05 | > 100 µM | > 50 µM

— article PMC7245249 (Biomedical Journal, 2020)
